Results reported in US5686466A, “Tricyclic condensed heterocyclic compounds their production and use” (priority 1993, dated 1997).
Where a name gives a salt, the structure may show the parent alone.

Key:
[1] = molecular target: T1, Acetylcholinesterase (Rattus norvegicus, UniProt P37136); experiment: cholinesterase inhibitory activity using (acetyl-[^3 H])-acetylcholine, S1 fraction of rat cerebral cortex homogenate; type: biochemical, male Wistar rat; settings: 30 min incubation
T1 construct: Using the S1 fraction of a male Wistar rat cerebral cortex homogenate as a source of cholinesterase; from tissue; host or cells: male Wistar rat cerebral cortex homogenate, S1 fraction
T1 sequence (P37136 32-614): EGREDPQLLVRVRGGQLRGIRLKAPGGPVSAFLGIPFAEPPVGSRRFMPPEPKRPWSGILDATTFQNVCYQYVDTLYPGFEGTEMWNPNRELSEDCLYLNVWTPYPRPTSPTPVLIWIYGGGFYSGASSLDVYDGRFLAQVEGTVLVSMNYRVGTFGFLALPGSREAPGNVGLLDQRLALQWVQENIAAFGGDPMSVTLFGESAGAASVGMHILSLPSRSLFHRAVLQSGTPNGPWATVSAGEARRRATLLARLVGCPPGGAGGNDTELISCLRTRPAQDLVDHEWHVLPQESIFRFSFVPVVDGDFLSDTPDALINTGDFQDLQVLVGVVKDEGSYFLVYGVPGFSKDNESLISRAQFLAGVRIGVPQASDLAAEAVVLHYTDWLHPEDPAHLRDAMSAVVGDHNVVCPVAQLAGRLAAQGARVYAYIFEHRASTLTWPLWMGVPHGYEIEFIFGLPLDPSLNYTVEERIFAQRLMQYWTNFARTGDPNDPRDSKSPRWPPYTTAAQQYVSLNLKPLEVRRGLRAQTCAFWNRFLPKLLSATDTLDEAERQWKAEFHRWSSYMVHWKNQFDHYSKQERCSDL
Description: The cholinesterase inhibitory activity of the compound of the present invention was tested, using (acetyl-[^3 H])-acetylcholine. Using the S1 fraction of a male Wistar rat cerebral cortex homogenate as a source of cholinesterase, (acetyl-[^3 H])-acetylcholine, as a substrate, and the test compound, as a sample, were incubated for 30 minutes. After the reaction was terminated, a toluene scintillator was added and the reaction mixture was shaken to migrate the [^3 H]-acetic acid resulting from the reaction to the toluene layer, where radioactivity was counted using a liquid scintillation counter to determine the cholinesterase inhibitory activity.
The sample's cholinesterase inhibitory activity was expressed by 50% inhibitory concentration (IC50).

[2] = test system: [3H]-serotonin (5-HT) uptake; experiment: monoamine uptake inhibition, [3H]-serotonin (5-HT), crude synaptosomal preparations of cerebral cortex and hippocampus; type: biochemical; settings: [^3 H]-HT 10 nM; 37° C; rat synaptosomes; read-out: Monoamine Reuptake Inhibitory Activity IC50, 5-HT
Description: (§1) Effects of the compound of this invention on monoamine uptake were investigated using [^3 H]-norepinephirine(NE) and [3H]-serotonin (5-HT). Rats were sacrificed by decapitation. The cerebral cortex and hippocampus were removed and homogenized in 10-15 volumes (W/V) of an ice-cold medium containing 0.32M sucrose. Crude synaptosomal preparations (P2) were isolated after differential centrifugation at 1000×g for 10 min and 20,000×g for 30 min at 4° C. Synaptosomal membranes were suspended in Krebs-Ringer bicarbonate (KRB) solution (116 mM NaCl, 4.8 mM KCl, 1.3 mM CaCl2, 1.2 mM MgSO4, 1.2 mM NaH2 PO4, 25 mM NaHCO3, 0.1 mM EDTA-2Na, 11.1 mM D-glucose, 0.11 mM L-ascorbic acid, 0.01 mM pargyline). Synaptosomal membrane suspension (900 μl) was preincubated with the test compound dissolved in DMSO solution at 37° C. for 5 min. The reaction was initiated by addition of 100 μl of [^3 H]-NE (11 nM in final concentration) or [^3 H]-HT (10 nM in final concentration). Five minutes later, the reaction was stopped by the addition of 4 ml of ice-cold KRB and the reaction mixture was filtered through Whatman CF/B. Filters were washed twice with 4 ml of KRB and the radioactivity bound was counted with liquid scintillant. Imipramine was used as positive control.

[3] = test system: [^3 H]-norepinephirine(NE) uptake; experiment: monoamine uptake inhibition, [^3 H]-norepinephirine (NE), crude synaptosomal preparations of cerebral cortex and hippocampus; type: biochemical; settings: [^3 H]-NE 11 nM; 37° C; rat synaptosomes; read-out: Monoamine Reuptake Inhibitory Activity IC50, NE
Description: as §1

[4] = background art; cited from earlier work

| SMILES | IC50 [1] [nM] | IC50 [2] [nM] | IC50 [3] [nM] | duration of action [4] | toxicity [4] |
| --- | --- | --- | --- | --- | --- |
| O=C(CCN1CCC(Cc2ccccc2)CC1)c1cc2c3c(c1)CCN3C(=O)CC2 [31-4] | 188 | 20.7 | 160 | – | – |
| O=C(CCC1CCN(Cc2ccccc2)CC1)c1ccc2c3c1CCCC3CN2 (centres unmarked) [compound 4, 1-(1,2,2a,3,4,5-Hexahydrobenz[cd]indol-6-yl)-3-[1-(phenylmethyl)piperidin-4-yl]-1-propanone dihydrochloride] | 91.8 | 601 | 347 | – | – |
| Cc1ccccc1CN1CCN(CCC(=O)c2cc3c4c(c2)CC(=O)N4CCC3)CC1 [compound 23, 8-[3-[4-[(2-Methylphenyl)methyl]-1-piperazinyl]-1-oxopropyl]-5,6-dihydro-4H-pyroro[3,2,1-ij]quinolin-2(1H)-one dihydrochloride] | 61.4 | 66.8 | 2430 | – | – |
| CNC(=O)Oc1ccc2c(c1)[C@]1(C)CCN(C)[C@@H]1N2C [physostigmine] | – | – | – | short duration of action | strong toxicity |
